# Paper PMC7355684 (Pharmaceutics, 2020)
# Where a SMILES comes first, the peptide text is derived from it. Side-chain parts run from the residue outwards. The star is where a group is joined. Daunorubicin(13-NOCH2CO) = COc1cccc2c1C(=O)c1c(O)c3c(c(O)c1C2=O)C[C@@](O)(C(C)=NOCC(=O)*)C[C@@H]3O[C@H]1C[C@H](N)[C@H](O)[C@H](C)O1
# Key:
# [1] = system: s.c. PANC-1 human pancreatic carcinoma; experiment: Subcutaneous PANC-1 human pancreatic cancer mouse model; type: in vivo, SCID mice
# Experimental: For establishing pancreatic tumor in experimental animals, PANC-1 cells were used, which were cultured in RPMI 1640 medium (Lonza), supplemented with 10% heat-inactivated FBS (Biosera, Nuaille, France), and 1% penicillin/streptomycin (Lonza). They were cultured in sterile T175 flasks (Sarstedt AG) with a ventilation cap at 37 °C in a humidified atmosphere with 5% CO2.
# Pancreatic cancer (PANC-1) cells were injected into SCID male mice (22–34 g) subcutaneously (s.c.), 3 × 10^6 cells per animal in 200 µL M199 (Sigma-Aldrich) per animal. The (i.p.) administration of treatment started 10 days after cells inoculation when the average tumor volume was 36 mm^3. Four groups with 7 animals per group were established and treated. The doses and schedule were as follows: control group was treated with sterile water used for the solubilization of Dau and the conjugates, while animals in the group administered with free Dau were treated on days 10, 19 and 24 after cell inoculation with a dose of 1 mg/kg. Mice administered with the conjugate 4 were separated in two groups and treated either with a dose of 10 mg/kg Dau-content (21.6 mg/kg conjugate) or with a dose of 2 mg/kg Dau-content (4.3 mg/kg conjugate) on days 10, 13, 19, 21, 24, 28, 31, 34, 39, 42, 46, 49, 53, 56, 60, 63, 67 and 70 after cells inoculation. Animal weight and tumor volumes were measured initially when the treatment started and at periodic intervals according to the treatment schedule. A digital caliper was used to measure the longest (a) and the shortest diameter (b) of a given tumor. The tumor volume was calculated using the formula V = ab^2 × π/6, where a and b represent the measured parameters (length and width). The experiment was terminated on day 74 after cells inoculation (day 65 of treatment). Animals treated with free Dau had to be terminated after 3 treatments on day 28 after cells inoculation (day 19 of treatment) due to significant weight-loss. Animals were sacrificed by cervical dislocation; primary tumors and livers were harvested and weighted.
# PANC-1 cells [2] = experiment: Flow cytometric cell surface binding and internalization; type: cell-based, human; conditions: 10^-5 M, flow cytometry, mean of 2 parallels ± SD
# Experimental: Cell surface binding and internalization of the conjugates were performed by flow cytometry (FACS-Calibur, Becton Dickinson, San Jose, CA, USA) based on the detection of the fluorescence activity of Dau (λex = 488 nm, λem = 585 nm) linked to the peptides. Studies of binding and uptake were performed on PANC-1 cells.
# Cells were seeded (2.5 × 10^5 cells/mL, 900 μL/well) on 12-well plates, 24 h prior to the treatment with conjugates and free Dau. To distinguish the cell surface binding and internalization of conjugates, the cells were treated with the conjugate solutions at a final concentration of 10^−5 M at two temperatures (37 °C and 4 °C) in parallel. After the incubation period of 30 min, cells were washed with PBS and were removed from the plate using TrypLE (Thermo Fisher Scientific, Waltham, MA, USA) cell-dissociation reagent, thus avoiding cell surface protein degradation. […] After the centrifugation of the cell suspension, the cell pellets were resuspended in PBS (400 μL/tube) and the samples were measured by a flow cytometer.
# To determine the fluorescence intensity and to evaluate the results CellQuest Pro (Becton Dickinson) and Flowing2.5.1. […] The instrument determines the relative fluorescence intensity of Dau built in the conjugates as geometric mean channel (GeoMean) value. […]
# PANC-1 cells [3] = experiment: cells; type: cell-based, human
# Experimental: This measurement is based on the registration of electrical resistance (impedance, Z) in alternating current (AC) field. The living cells transplanted to the gold measuring electrodes are physically insulated by phospholipid bilayer that covers them. This instrumentally measurable property changes (decreases) in response to cellular cytotoxic agents. Our measurements were performed on xCELLigence single plate (ACEA Biosciences, San Diego, CA, USA) dedicated for impedimetric analysis of cellular samples at 37 °C and 5% CO2.
# During the initial phase of the experiments—the baseline recording—a special 96-well cell culture plate, E-plate (ACEA Biosciences), equipped with measuring electrodes, was pretreated with freshly prepared cell culture medium (for 60 min; sampling frequency: 1 min). Subsequently, PANC-1 cells were plated at a cell density of 10^4 cells/well. During the 24 h incubation, the cells evenly covered the electrodes at the bottom of the wells of the E-plate. The resulting confluent cell cultures were then treated with the test substances at the following final concentrations: 10^−6, 10^−5, 10^−4 M. Total treatment duration was 72 h and the sampling rate was 1 min (0–24 h); and then 15 min (48–72 h). In our measurements, three replicates were used, the control was the drug-free medium. […] The CI results were analyzed with xCELLigence RTCA 2.0 software and Origin Pro 8.0 software.
# PANC-1 cells [4] = experiment: Colorimetric (alamarBlue) cytotoxicity on PANC-1; type: cell-based; conditions: Homo sapiens, concentration needed to decrease the cell viability by 50%, read-out: IC50 (colorimetry)
# Experimental: (§1) The protocol for the alamarBlue-assay was similar to the method which was published earlier, with some minor modifications. Briefly, the cell seeding occurred on 96-well cell culture plates (Sarstedt AG, Nümbrecht, Germany) at 10^4 cells/well concentration. After a 24 h long culturing period, the treatment was carried out with the conjugates at 10^−4, 10^−5 and 10^−6 M final concentrations for 24, 48 and 72 h. In the next steps, the alamarBlue reagent (0.15 mg/mL, Sigma-Aldrich) dissolved in phosphate-buffered saline (PBS; pH = 7.2), was added to the wells. After 6 h incubation with the reagent, the fluorescence intensity of the samples was obtained by an LS-50B Luminescence Spectrometer (Perkin Elmer Ltd., Buckinghamshire, UK) or a Fluoroskan^TM FL Microplate Fluorometer and Luminometer (Thermo Scientific, Waltham, MA, USA) by using the following settings: λex = 560 nm and λem = 590 nm.
# Three parallels were performed per treatment group. […] Fluorescence intensities of the samples treated with various concentrations of conjugates were expressed as a percentage of the fluorescence of control.
# To confirm that the different methods can be used to compare the effects of conjugates on the different model cells, the cytotoxicity of Dau was measured by both impedimetric and colorimetric methods on PANC-1 cells.
# [5] = in vivo; cited from earlier work
# From the text: Daunomycin (Dau) was applied as a payload. It was indicated in our previous research that Dau can be attached to peptides via oxime linkage easily with good yields. […] It might be because of the lower DNA binding affinity of the Dau containing metabolite compared to Dau. However, the oxime linked conjugates are stable in the circulation and no loss of Dau can be observed before reaching the target cells.
# [6] = Lysosomal degradation of conjugates by LC-MS; type: in vitro ADME; conditions: rat liver lysosome homogenate, 0.2 M NaOAc pH 5.03, 0.025 μg/μL conjugate, 37 °C, sampling up to 72 h
# Experimental: For the stability and metabolism studies of the conjugates, liquid chromatography–mass spectrometry (LC-MS) analyses were performed on a Q ExactiveTM Focus, high resolution and high mass accuracy, hybrid quadrupole-orbitrap mass spectrometer (Thermo Fisher Scientific, Bremen, Germany) using on-line UHPLC coupling. UHPLC separation was performed on a Dionex 3000 UHPLC system using a Supelco Ascentis C18 column (2.1 × 150 mm, 3 µm). Linear gradient elution (0 min 2% B, 1 min 2% B, 17 min 90% B) with eluent A (0.1% HCOOH in water, v/v) and eluent B (0.1% HCOOH in acetonitrile/water, 80:20, v/v) was used at a flow rate of 0.2 mL/min at 40 °C. High-resolution mass spectra were acquired in the 200–1600 m/z range. LC-MS data were analyzed by XcaliburTM software (Thermo Fisher Scientific) and with Origin Pro 8 (OriginLab Corp., Northampton, MA, USA).
# Conjugates were dissolved in distilled water in 2.5 μg/μL concentration followed by dilution with 0.2 M NaOAc solution (pH = 5.03) to 0.025 μg/μL. The lysosome-homogenate was prepared from rat liver and contained proteins in 16.6 μg/μL concentration. An aliquot (20 μL) of this stock solution was further diluted with […] 0.2 M NaOAc solution, therefore the final protein concentration was 0.83 μg/μL. To prepare the reaction mixture, 15 μL (0.83 μg/μL) lysosome homogenate was added to 500 μL (0.025 μg/μL) conjugate solution. Furthermore, a control reaction mixture was always prepared which contained 500 μL conjugate solution and 15 μL NaOAc solution only. The solutions were stirred on 600 rpm at 37 °C and samples (50 μL) were taken out at 0 min, 5 min, 15 min, 30 min, 1 h, 2 h, 6 h, 24 h, and 72 h. The enzymatic activity was quenched by adding 5 μL formic acid to the samples. After this procedure, samples were frozen immediately at −25 °C. Control samples were taken at 0 min, 15 min, 1 h, 6 h, 24 h and 72 h. Composition of the samples was determined by HPLC-MS as described above.
# A2058 cells = type: cell-based, human; conditions: alamarBlue fluorescence normalized to control wells, 10^-5 M, mean ± SD, n=3
# Experimental: (§2) EBC-1 and Colo-205 model cells have weak/negligible adherent properties, and A2058 cells could not produce constant cell index values. Therefore, a colorimetric assay (alamarBlue-assay) was chosen instead of the xCELLigence system to investigate the viability of these model cells treated with the conjugates. Due to the growth characteristics of NHDF cells, alamarBlue-assay was performed also on this cell line.
# as §1
# (§3) Three parallels were performed per treatment group. In the case of controls, an equivalent volume of cell culture media was added to the cell. Fluorescence intensities of the samples treated with various concentrations of conjugates were expressed as a percentage of the fluorescence of control.
# Colo-205 cells = type: cell-based, human; conditions: alamarBlue fluorescence normalized to control wells, 10^-5 M, mean ± SD, n=3
# Experimental: as §2, §1, §3
# EBC-1 cells = type: cell-based, human; conditions: alamarBlue fluorescence normalized to control wells, 10^-5 M, mean ± SD, n=3
# Experimental: as §2, §1, §3
Structure (SMILES),"Animal weight decrease compared to start of the experiment ([1]; free Dau 1 mg/kg i.p., 3 treatments, day 28 after cell inoculation) [%]","Decrease of average liver/body weight ratio vs control ([1]; free Dau 1 mg/kg i.p., three times, day 28 after cell inoculation) [%]","Inhibition of tumor growth (tumor volume) ([1]; free Dau 1 mg/kg i.p., day 28 after cell inoculation (day 19 of treatment)) [%]","Liver / body weight (printed in Figure 9D, %) ([1]; free Dau 1 mg/kg, three treatments, day 28, relative to control) [%]","Relative fluorescence intensity (GeoMean values), Cellular uptake (PANC-1 cells [2]; 30 min, GeoMean at 37 °C minus GeoMean at 4 °C)","Relative fluorescence intensity (GeoMean values), Binding (PANC-1 cells [2]; 30 min at 4 °C, Dau fluorescence, corrected for autofluorescence)","IC50 (PANC-1 cells [3]; Homo sapiens, PANC-1, read-out: IC50 (impedimetry)) [nM]",IC50 (PANC-1 cells [4]) [nM],Maximum tolerated dose (MTD) [5] [mg/kg],"Viability (%) at 10^−5 M Concentration, After 72 h Incubation (PANC-1 cells [3]; PANC-1, impedimetry, cell index normalized to control wells, 10^−5 M, 72 h, mean ± SD, n = 3) [%]","Viability after 24 h (PANC-1 cells [3]; PANC-1, impedimetry, 10^−5 M, 24 h (Figure 1A)) [%]",Time to complete lysosomal degradation [6] [h],"Viability (%) at 10-5 M concentration, after 72 h incubation, A2058 (A2058 cells) [%]","Viability (%) at 10-5 M concentration, after 72 h incubation, Colo-205 (Colo-205 cells) [%]","Viability (%) at 10-5 M concentration, after 72 h incubation, EBC-1 (EBC-1 cells) [%]"
"COc1cccc2c1C(=O)c1c(O)c3c(c(O)c1C2=O)C[C@@](O)(C(C)=O)C[C@@H]3O[C@H]1C[C@H](N)[C@H](O)[C@H](C)O1 [Dau, Daunomycin]",21,29.1,35.7,70.9,702.048 ± 84.340,72.057 ± 3.907,189,179,1 to 2,–,–,–,–,–,–
"COc1cccc2c1C(=O)c1c(O)c3c(c(O)c1C2=O)C[C@@](O)(C(C)=NOCC(=O)NCC(=O)N[C@@H](Cc1ccccc1)C(=O)N[C@@H](CC(C)C)C(=O)NCC(=O)NCCCC[C@H](NC(=O)CNC(=O)[C@H](CC(C)C)NC(=O)[C@H](Cc1ccccc1)NC(=O)CNC(=O)CON=C(C)[C@]1(O)Cc2c(O)c4c(c(O)c2[C@@H](O[C@H]2C[C@H](N)[C@H](O)[C@H](C)O2)C1)C(=O)c1c(OC)cccc1C4=O)C(=O)N[C@@H](CO)C(=O)N[C@@H](CCCCN)C(=O)N[C@@H](C)C(=O)N[C@@H](C)C(=O)N[C@@H](CCCCN)C(=O)N[C@@H](CC(N)=O)C(=O)O)C[C@@H]3O[C@H]1C[C@H](N)[C@H](O)[C@H](C)O1 [conjugate 5, Dau=Aoa-GFLG-K(Dau=Aoa-GFLG)SKAAKN-OH] ({Daunorubicin(13-NOCH2CO)}-GFLGK([Gly-Leu-Phe-Gly-Daunorubicin(13-NOCH2CO)])SKAAKN-OH)",–,–,–,–,–,–,–,–,–,31.3 ± 1.8,34,> 72,61.9 ± 11.6,45.8 ± 2.6,57.6 ± 11.1
